The test system of one test is endometriotic lesions. As to the kind of experiment: Endometriosis animal model, lesion size and histology. Type of test: in vivo, C57/BL6 mice. The following applies: fraxetin 30mg/kg orally for four weeks. On the procedure: Seven-week-old female C57/BL6 mice were purchased from DBL (Eumseong, South Korea). After a 7-day acclimation period, they were subcutaneously injected with 2 mg/50 μL of progesterone two days before surgery. After anesthetizing the mice, the […] was excised and autografted onto the peritoneum to induce endometriosis. After culturing for two weeks, the mice were randomly assigned to groups and administered either a vehicle as the control, fraxetin at 30mg/kg, or dienogest at 1 mg/kg orally for four weeks.
For histological analysis, tissues were lesion prepared as paraffin blocks and sectioned onto slides. Hematoxylin-eosin (H&E) staining was performed using Mayer's hemalum solution and a Prussian Blue staining kit (Cat. Ab150674, Abcam) histological analysis and for immunohistochemistry. Immunohistochemistry was conducted using an avidin-biotin complex kit (Cat. PK-4001, Vector Laboratories).

Test [1] has as its system End1/E6E7 cells. The test can be described thus: BrdU cell proliferation assay. The following applies: End1/E6E7, all concentrations (5-100 μM), 48 hours. Type of test: cell-based, human. On the procedure: (§1) To examine the effects of fraxetin on cell proliferation, the inventors performed a BrdU cell proliferation assay.
(§2) First, 5×10^3 cells of VK2/E6E7, End1/E6E7, and T-HESC were each distributed in 100 μL of medium in 96-well plates.
(§3) Fraxetin was then administered in a dose-dependent manner (0μM, 5 μM, 10 μM, 20 uM, 50 μM, 100 uM) and cultured for 48 hours, followed by the BrdU assay using a BrdU kit (Cat No: 1167229001, Roche) according to the manufacturer's instructions.
(§4) After 48 hours of incubation, 10 μM BrdU (Bromodeoxyuridine) was added to each well and incubated at 37° C. in a 5% CO2 incubator for 2 hours. The cells were then fixed, reacted with anti-BrdU-POD solution at room temperature for 90 minutes, and washed three times. Finally, 100 μL of 3, 3′, 5, 5′-tetramethylbenzidine substrate was added, and absorbance was measured at wavelengths of 370 nm and 492 nm to analyze cell proliferation.

The subject of test [2] is VK2/E6E7 cells. The test can be described thus: BrdU cell proliferation assay. Type of test: cell-based, human. Conditions: VK2/E6E7, 100 μM, 48 hours. How it is done: as §1, §2, §3, §4
In test [3] the test system is normal endometrial stromal cell line T-HESC. The test can be described thus: BrdU cell proliferation assay, normal cells. Type of test: cell-based, human. The following applies: 48 hours. How it is done: as §1, §2, §3, §4
Test [4] deals with End1/E6E7 cells. As to the kind of experiment: Cell cycle analysis by flow cytometry (PI). Type of test: cell-based, human. The following applies: End1/E6E7, 48 hours. How it is done: (§5) The inventors performed flow cytometry to examine the changes in the cell cycle of endometrial cells induced by fraxetin.
(§6) In brief, 5×10^3 cells of VK2/E6E7, End1/E6E7, and T-HESC were treated with fraxetin in a dose-dependent manner (0 μM, 5 μM, 10 μM, 20 μM, 50 μM, 100 μM) and incubated for 48 hours at 37° C. in a 5% CO2 incubator.
(§7) Afterward, cells were detached from the culture plates using trypsin, washed with 0.1% BSA/PBS, and fixed in 70% ethanol for 24 hours. The cells were then washed with 0.1% BSA/PBS, treated with RNase A (Sigma), and stained with PI. The stained solution transferred to FACS tubes, and fluorescence intensity and cell cycle were analyzed using a flow cytometer.
For orientation: Flow cytometry measures light scatter and fluorescence of single cells or particles in a stream.

Test [5] concerns VK2/E6E7 cells. The test can be described thus: Cell cycle analysis by flow cytometry (PI). Conditions: VK2/E6E7, 48 hours. Type of test: cell-based, human. How it is done: as §5, §6, §7
The subject of test [6] is End1/E6E7 cells. The test can be described thus: Wound healing / cell migration assay. The following applies: End1/E6E7, 50 μM fraxetin; vehicle 88%. Type of test: cell-based, human. On the procedure: (§8) To measure the effects of fraxetin on endometrial cell migration, the inventors used a migration culture dish insert from Ibidi to analyze cell mobility.
(§9) In brief, endometrial cells (VK2/E6E7, End1/E6E7) were placed in compartmentalized wells within the culture dish and cultured until they filled the compartments. Afterward, the insert separating the compartments was removed, creating a 500 μm gap for cell migration. The cells were then cultured with medium containing fraxetin at 37° C. in a 5% CO2 incubator. Cell movement across the gap was observed using an optical microscope (DM3000, Leica) and photographed, and the migration distance was calculated and quantified.

Test [7] concerns VK2/E6E7 cells. The test can be described thus: Wound healing / cell migration assay. Type of test: cell-based, human. The following applies: vehicle 90%. How it is done: as §8, §9
For test [8], the system named is End1/E6E7 cells. As to the kind of experiment: Mitochondrial membrane potential by JC-1 staining. The following applies: End1/E6E7. Type of test: cell-based, human. On the procedure:
To examine changes in mitochondrial membrane potential (MMP) in endometrial cells induced by fraxetin, the inventors used a mitochondria staining kit (Cat no: CS0390, Sigma-Aldrich) to measure MMP.
In brief, End1/E6E7 and […] endometrial cell lines were cultured in 6-well plates, treated with fraxetin in a dose-dependent manner (0 μM, 5 μM, 10 μM, 20 μM, 50 μM, 100 μM), and incubated at 37° C. in a 5% CO2 incubator for 48 hours. Afterward, the cells were detached using trypsin, centrifuged to obtain cell pellets, resuspended in JC-1 staining solution, and incubated at 37° C. in a 5% CO2 incubator for 20 minutes. The stained cells were centrifuged again, washed with 1X JC-1 staining buffer, and analyzed using flow cytometry to assess changes in mitochondrial membrane potential.

Test [9] has as its system End1/E6E7 cells. The test can be described thus: Mitochondrial calcium concentration (rhod-2 staining). Type of test: cell-based, human. How it is done: (§10) To examine intracellular or mitochondrial calcium concentration changes in endometrial cells induced by fraxetin, the inventors conducted experiments using 3 μM fluo-4 acetoxymethyl ester (AM) (Invitrogen) and 3 μM rhod-2.
(§11) First, cells were cultured in 6-well plates, treated with fraxetin in a dose-dependent manner (0 μM, 5 μM, 10 μM, 20 μM, 50 μM, 100 μM), and incubated at 37° C. in a 5% CO2 incubator for 48 hours. The cells were then detached using trypsin, washed with PBS, and stained with 3 μM fluo-4 or 3 μM rhod-2 for 20 minutes at 37° C. in a 5% CO2 incubator. After staining, the cells were washed with PBS, transferred to FACS tubes, and analyzed by flow cytometry to measure intracellular or mitochondrial calcium concentrations.

In test [10] the test system is VK2/E6E7 cells. The description is as above. Type of test: cell-based, human. How it is done:
as §10, §11

Each structure is given as a SMILES string.

In the case of `COc1cc2ccc(=O)oc2c(O)c1O` [fraxetin], the “immune cell infiltration (tissue after iron staining)” value with endometriotic lesions is recorded as “increase”. In addition, the “size of endometriotic lesions” value in the test with endometriotic lesions (vs vehicle control) is recorded as “significantly reduced”. Besides, in the test on End1/E6E7 cells [1], the “cell proliferation (remaining)” value is on record as “below 50%”. Besides, the “reduction of cell proliferation” value with VK2/E6E7 cells [2] is reported as “approximately 40%”. Moreover, the “cell proliferation in normal endometrial cells” value in test [3] is reported as “no changes”. Further, the “number of cells in the Sub-G1 phase” value in the test with End1/E6E7 cells [4] and with VK2/E6E7 cells [5] was “increase” each time. For the same compound, the wound closure in the test with End1/E6E7 cells [6] was found to be 7%; in the test with VK2/E6E7 cells [7], 18%. Besides, the “relative membrane potential loss rate increase” value with End1/E6E7 cells [8] was found to be 1.8 fold. The “mitochondrial calcium ion levels” value is 1.7 fold in the test on End1/E6E7 cells [9] (20 μM fraxetin, first value, End1/E6E7 assumed); “slight increase” in the test on End1/E6E7 cells [9] (50 μM fraxetin); 2.4 fold with VK2/E6E7 cells [10] (20 μM fraxetin, second value, VK2/E6E7 assumed); “slight increase” in the test on VK2/E6E7 cells [10] (50 μM fraxetin).

The values above are taken from patent US20250302799A1, “PHARMACEUTICAL COMPOSITION CONTAINING FRAXETIN FOR PREVENTION OR TREATMENT OF ENDOMETRIOSIS” (Research & Business Foundation Sungkyunkwan University, priority 2024, published 2025).
